Target: T1, AsPC-1 HiBiT-KRASG12D (Homo sapiens, UniProt P01116, G12D)
T1 construct: insert the HiBiT tag onto the N-terminus of one or more of the endogenous KRAS alleles; endogenous in cells; host or cells: AsPC-1 (ATCC CRL-1682), CRISPR-Cas9 knock-in clone, one tagged allele
Experiment: HiBiT degradation assay (G12D), AsPC-1 HiBiT-KRASG12D cells
Assay type: cell-based
Details: 24 hours treatment; for DC50: AsPC-1 HiBiT-KRASG12D cells, HiBiT luminescence; for Dmax: ASPC1, AsPC-1 HiBiT-KRASG12D cells, maximum degradation observed
Outline: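 AsPC-1 cells carried a CRISPR knock-in of an N-terminal HiBiT tag on endogenous KRAS G12D. After 24 h compound treatment at 37 °C (triplicate), viability was read by alamar blue (4 h, fluorescence, normalized to DMSO). HiBiT-KRAS levels were then measured by Nano-Glo HiBiT lytic luminescence after 45 min at room temperature.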

T1 sequence (P01116 1-188 isoform P01116-2 G12D): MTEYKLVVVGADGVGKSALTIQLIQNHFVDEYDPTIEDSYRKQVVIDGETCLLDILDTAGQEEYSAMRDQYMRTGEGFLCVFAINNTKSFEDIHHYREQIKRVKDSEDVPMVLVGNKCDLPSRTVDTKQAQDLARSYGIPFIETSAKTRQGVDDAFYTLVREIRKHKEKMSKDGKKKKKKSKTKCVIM

Row | Structure (SMILES) | DC50 | Dmax
1 | CCc1cccc2cc(O)cc(-c3ncc4c(N5CC6CCC(C5)N6C=O)nc(OCCN5CCC6(CC5)CN(c5cc([C@H](C(=O)N7C[C@H](O)C[C@H]7C(=O)N[C@@H](C)c7ccc(-c8scnc8C)cc7)C(C)C)on5)C6)nc4c3F)c12 [Compound 290, (2S,4R)-1-[(2R)-2-[3-[7-[2-[7-(8-ethyl-3-hydroxy-1-naphthyl)-8-fluoro-4-(8-formyl-3,8-diazabicyclo[3.2.1]octan-3-yl)pyrido[4,3-d]pyrimidin-2-yl]oxyethyl]-2,7-diazaspiro[3.5]nonan-2-yl]isoxazol-5-yl]-3-methyl-butanoyl]-4-hydroxy-N-[(1S)-1-[4-(4-methylthiazol-5-yl)phenyl]ethyl]pyrrolidine-2-carboxamide] | > 3000 nM | –
2 | Cc1ncsc1-c1ccc([C@H](C)NC(=O)[C@@H]2C[C@@H](O)CN2C(=O)[C@@H](c2cc(N3CC4(CCN(CCOc5nc(N6CC7CCC(C6)N7)c6cnc(-c7cc(O)cc8ccc(F)c(F)c78)c(F)c6n5)CC4)C3)no2)C(C)C)cc1 (relative stereo) [Compound 68, (2S,4R)-1-[(2R*)-2-[3-(7-{2-[(4-{3,8-diazabicyclo[3.2.1]octan-3-yl}-7-(7,8-difluoro-3-hydroxynaphthalen-1-yl)-8-fluoropyrido[4,3-d]pyrimidin-2-yl)oxy]ethyl}-2,7-diazaspiro[3.5]nonan-2-yl)-1,2-oxazol-5-yl]-3-methylbutanoyl]-4-hydroxy-N-[(1S)-1-[4-(4-methyl-1,3-thiazol-5-yl)phenyl]ethyl]pyrrolidine-2-carboxamide] | < 600 nM | 80 to 100%
3 | CCc1cccc2cc(O)cc(-c3ncc4c(N5CC6CCC(C5)N6)nc(OCCN5CCC(CN6CCN(c7cc([C@H](C(=O)N8C[C@H](O)C[C@H]8C(=O)N[C@@H](C)c8ccc(-c9scnc9C)cc8)C(C)C)on7)CC6)CC5)nc4c3F)c12 [Compound 211, (2S,4R)-1-[(2R)-2-(3-{4-[(1-{2-[(4-{3,8-diazabicyclo[3.2.1]octan-3-yl}-7-(8-ethyl-3-hydroxynaphthalen-1-yl)-8-fluoropyrido[4,3-d]pyrimidin-2-yl)oxy]ethyl}piperidin-4-yl)methyl]piperazin-1-yl}-1,2-oxazol-5-yl)-3-methylbutanoyl]-4-hydroxy-N-[(1S)-1-[4-(4-methyl-1,3-thiazol-5-yl)phenyl]ethyl] pyrrolidine-2-carboxamide] | < 600 nM | 80 to 100%
4 | CCc1cccc2cc(O)cc(-c3ncc4c(N5CC6CCC(C5)N6)nc(OC[C@]56CCCN5[C@H](COC(=O)N5CC(Oc7cc([C@H](C(=O)N8C[C@H](O)C[C@H]8C(=O)N[C@@H](C)c8ccc(-c9scnc9C)cc8)C(C)C)on7)C5)CC6)nc4c3F)c12 [Compound 128, [(3S,7aR)-7a-{[(4-{3,8-diazabicyclo[3.2.1]octan-3-yl}-7-(8-ethyl-3-hydroxynaphthalen-1-yl)-8-fluoropyrido[4,3-d]pyrimidin-2-yl)oxy]methyl}-hexahydro-1H-pyrrolizin-3-yl]methyl 3-({5-[(2R)-1-[(2S,4R)-4-hydroxy-2-{[(1S)-1-[4-(4-methyl-1,3-thiazol-5-yl)phenyl]ethyl]carbamoyl}pyrrolidin-1-yl]-3-methyl-1-oxobutan-2-yl]-1,2-oxazol-3-yl}oxy)azetidine-1-carboxylate] | < 600 nM | 80 to 100%
5 | CCc1cccc2cc(O)cc(-c3ncc4c(N5CC6CCC(C5)N6)nc(OCCN5CCC(F)(CN6CCN(c7cc([C@H](C(=O)N8C[C@H](O)C[C@H]8C(=O)N[C@@H](C)c8ccc(-c9scnc9C)cc8)C(C)C)on7)C[C@H]6C)CC5)nc4c3F)c12 [Compound 200, (2S,4R)-1-[(2R)-2-{3-[(3R)-4-[(1-{2-[(4-{3,8-diazabicyclo[3.2.1]octan-3-yl}-7-(8-ethyl-3-hydroxynaphthalen-1-yl)-8-fluoropyrido[4,3-d]pyrimidin-2-yl)oxy]ethyl}-4-fluoropiperidin-4-yl)methyl]-3-methylpiperazin-1-yl]-1,2-oxazol-5-yl}-3-methylbutanoyl]-4-hydroxy-N-[(1S)-1-[4-(4-methyl-1,3-thiazol-5-yl)phenyl]ethyl]pyrrolidine-2-carboxamide] | < 600 nM | 60 to 80%
6 | CCc1cccc2cc(O)cc(-c3ncc4c(N5CC6CCC(C5)N6)nc(OCCC5CCN(CC6CN(c7cc([C@@H](C(=O)N8C[C@H](O)C[C@H]8C(=O)N[C@@H](C)c8ccc(-c9scnc9C)cc8)C(C)C)on7)C6)CC5)nc4c3F)c12 [Compound 219, (2S,4R)-1-[(2S)-2-(3-{3-[(4-{2-[(4-{3,8-diazabicyclo[3.2.1]octan-3-yl}-7-(8-ethyl-3-hydroxynaphthalen-1-yl)-8-fluoropyrido[4,3-d]pyrimidin-2-yl)oxy]ethyl}piperidin-1-yl)methyl]azetidin-1-yl}-1,2-oxazol-5-yl)-3-methylbutanoyl]-4-hydroxy-N-[(1S)-1-[4-(4-methyl-1,3-thiazol-5-yl)phenyl]ethyl]pyrrolidine-2-carboxamide] | 1000 to 3000 nM | 20 to 60%
7 | C#Cc1c(F)ccc2cc(O)cc(-c3ncc4c(N5CC6CCC(C5)N6)nc(OCCN5CCC(CC6CCN(c7cc([C@@H](C(=O)N8C[C@H](O)C[C@H]8C(=O)N[C@@H](C)c8ccc(-c9ccnn9C)cc8)C(C)C)on7)CC6)CC5)nc4c3F)c12 [Compound 169, (2S,4R)-1-[(2S)-2-(3-{4-[(1-{2-[(4-{3,8-diazabicyclo[3.2.1]octan-3-yl}-7-(8-ethynyl-7-fluoro-3-hydroxynaphthalen-1-yl)-8-fluoropyrido[4,3-d]pyrimidin-2-yl)oxy]ethyl}piperidin-4-yl)methyl]piperidin-1-yl}-1,2-oxazol-5-yl)-3-methylbutanoyl]-4-hydroxy-N-[(1S)-1-[4-(1-methyl-1H-pyrazol-5-yl)phenyl]ethyl]pyrrolidine-2-carboxamide] | 600 to 1000 nM | 20 to 60%
8 | Cc1ncsc1-c1ccc([C@H](C)NC(=O)[C@@H]2C[C@@H](O)CN2C(=O)[C@@H](c2cc(OC[C@@H]3CC[C@]4(COc5nc(N6CC7CCC(C6)N7)c6cnc(-c7cccc8ccc(F)c(F)c78)c(F)c6n5)CCCN34)no2)C(C)C)cc1 [Compound 61, (2S,4R)-1-[(2R)-2-(3-{[(3S,7aS)-7a-{[(4-{3,8-diazabicyclo[3.2.1]octan-3-yl}-7-(7,8-difluoronaphthalen-1-yl)-8-fluoropyrido[4,3-d]pyrimidin-2-yl)oxy]methyl}-hexahydro-1H-pyrrolizin-3-yl]methoxy}-1,2-oxazol-5-yl)-3-methylbutanoyl]-4-hydroxy-N-[(1S)-1-[4-(4-methyl-1,3-thiazol-5-yl)phenyl]ethyl]pyrrolidine-2-carboxamide] | < 600 nM | 80 to 100%
9 | C#Cc1c(F)ccc2cc(O)cc(-c3ncc4c(N5CC6CCC(C5)N6)nc(OCCN5CCC(CN6CCN(c7cc([C@H](C(=O)N8C[C@H](O)C[C@H]8C(=O)N[C@@H](C)c8ccc(-c9scnc9C)cc8)C(C)C)on7)CC6)CC5)nc4c3F)c12 [Compound 206, (2S,4R)-1-[(2R)-2-(3-{4-[(1-{2-[(4-{3,8-diazabicyclo[3.2.1]octan-3-yl}-7-(8-ethynyl-7-fluoro-3-hydroxynaphthalen-1-yl)-8-fluoropyrido[4,3-d]pyrimidin-2-yl)oxy]ethyl}piperidin-4-yl)methyl]piperazin-1-yl}-1,2-oxazol-5-yl)-3-methylbutanoyl]-4-hydroxy-N-[(1S)-1-[4-(4-methyl-1,3-thiazol-5-yl)phenyl]ethyl]pyrrolidine-2-carboxamide] | < 600 nM | 80 to 100%
10 | C#Cc1c(F)ccc2cc(O)cc(-c3ncc4c(N5CC6CCC(C5)N6)nc(OCCN5CCC(CN6CCN(c7cnc(C(=O)N[C@H](C(=O)N8C[C@H](O)C[C@H]8C(=O)N[C@@H](C)c8ccc(-c9scnc9C)cc8)C(C)(C)C)cn7)CC6)CC5)nc4c3F)c12 [Compound 179, 5-{4-[(1-{2-[(4-{3,8-diazabicyclo[3.2.1]octan-3-yl}-7-(8-ethynyl-7-fluoro-3-hydroxynaphthalen-1-yl)-8-fluoropyrido[4,3-d]pyrimidin-2-yl)oxy]ethyl}piperidin-4-yl)methyl]piperazin-1-yl}-N-[(2S)-1-[(2S,4R)-4-hydroxy-2-{[(1S)-1-[4-(4-methyl-1,3-thiazol-5-yl)phenyl]ethyl]carbamoyl}pyrrolidin-1-yl]-3,3-dimethyl-1-oxobutan-2-yl]pyrazine-2-carboxamide] | < 600 nM | 80 to 100%
11 | C#Cc1c(F)ccc2cc(O)cc(-c3ncc4c(N5CC6CCC(C5)N6)nc(OC[C@@H]5CC[C@@H](COC(=O)N6CCN(c7cc([C@H](C(=O)N8C[C@H](O)C[C@H]8C(=O)N[C@@H](C)c8ccc(-c9scnc9C)cc8)C(C)C)on7)CC6)N5C)nc4c3F)c12 [Compound 59, [(2S,5S)-5-{[(4-{3,8-diazabicyclo[3.2.1]octan-3-yl}-7-(8-ethynyl-7-fluoro-3-hydroxynaphthalen-1-yl)-8-fluoropyrido[4,3-d]pyrimidin-2-yl)oxy]methyl}-1-methylpyrrolidin-2-yl]methyl 4-{5-[(2R)-1-[(2S,4R)-4-hydroxy-2-{[(1S)-1-[4-(4-methyl-1,3-thiazol-5-yl)phenyl]ethyl]carbamoyl}pyrrolidin-1-yl]-3-methyl-1-oxobutan-2-yl]-1,2-oxazol-3-yl}piperazine-1-carboxylate] | < 600 nM | 80 to 100%
12 | CCc1cccc2cc(O)cc(-c3ncc4c(N5CC6CCC(C5)N6)nc(OCCN5CCC(CC6CCN(c7cc([C@H](C(=O)N8C[C@H](O)C[C@H]8C(=O)N[C@@H](C)c8ccc(-c9ccnn9C)cc8)C(C)C)on7)CC6)CC5)nc4c3F)c12 [Compound 202, (2S,4R)-1-[(2R)-2-(3-{4-[(1-{2-[(4-{3,8-diazabicyclo[3.2.1]octan-3-yl}-7-(8-ethyl-3-hydroxynaphthalen-1-yl)-8-fluoropyrido[4,3-d]pyrimidin-2-yl)oxy]ethyl}piperidin-4-yl)methyl]piperidin-1-yl}-1,2-oxazol-5-yl)-3-methylbutanoyl]-4-hydroxy-N-[(1S)-1-[4-(1-methyl-1H-pyrazol-5-yl)phenyl]ethyl]pyrrolidine-2-carboxamide] | < 600 nM | 80 to 100%

Source: patent US20250206732A1, “COMPOUNDS AND METHODS FOR THE TARGETED DEGRADATION OF KRAS” (Arvinas Operations, Inc., priority 2022, published 2025)
